Source: ChEMBL document CHEMBL4834434, “Discovery of Novel and Potent N-Methyl-d-aspartate Receptor Positive Allosteric Modulators with Antidepressant-like Activity in Rodent Models” (J Med Chem, 2021)
Active and inactive are the calls of the source. The calls are words filed in the database; no cut-off is given here.

Experiments:
[1] = Cytotoxicity against African green monkey Vero cells assessed as cell growth inhibition at 60 uM measured after 48 hrs by CCK8 assay relative to control; assay type: cell-based; conditions: chlorocebus sabaeus
[2] = molecular target: Sodium-dependent dopamine transporter (Rattus norvegicus) (UniProt P23977); assay: Displacement of [3H]-WIN35428 from rat striatum DAT; assay type: tissue-based
Sodium-dependent dopamine transporter (Rattus norvegicus), sequence (P23977 whole entry): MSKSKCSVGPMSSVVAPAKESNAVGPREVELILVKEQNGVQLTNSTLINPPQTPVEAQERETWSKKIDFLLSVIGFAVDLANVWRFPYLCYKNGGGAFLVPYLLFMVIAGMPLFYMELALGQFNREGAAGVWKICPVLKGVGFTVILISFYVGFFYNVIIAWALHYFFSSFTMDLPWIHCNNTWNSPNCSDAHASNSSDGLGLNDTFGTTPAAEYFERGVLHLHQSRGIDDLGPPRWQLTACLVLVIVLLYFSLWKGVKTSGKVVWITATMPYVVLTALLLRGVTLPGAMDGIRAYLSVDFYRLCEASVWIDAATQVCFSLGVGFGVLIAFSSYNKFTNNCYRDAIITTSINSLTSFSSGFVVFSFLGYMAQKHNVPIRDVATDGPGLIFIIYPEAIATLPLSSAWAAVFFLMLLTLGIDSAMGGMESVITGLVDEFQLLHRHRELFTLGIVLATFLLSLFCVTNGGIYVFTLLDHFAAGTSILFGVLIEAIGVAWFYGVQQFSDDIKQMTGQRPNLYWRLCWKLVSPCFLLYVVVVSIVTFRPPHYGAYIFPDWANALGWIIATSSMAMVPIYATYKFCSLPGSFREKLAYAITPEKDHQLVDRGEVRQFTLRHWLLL

[3] = molecular target: Sodium-dependent noradrenaline transporter (Homo sapiens) (UniProt P23975); assay: Displacement of [3H]-Nisoxetine from NET (unknown origin)
Sodium-dependent noradrenaline transporter (Homo sapiens), sequence (P23975 whole entry): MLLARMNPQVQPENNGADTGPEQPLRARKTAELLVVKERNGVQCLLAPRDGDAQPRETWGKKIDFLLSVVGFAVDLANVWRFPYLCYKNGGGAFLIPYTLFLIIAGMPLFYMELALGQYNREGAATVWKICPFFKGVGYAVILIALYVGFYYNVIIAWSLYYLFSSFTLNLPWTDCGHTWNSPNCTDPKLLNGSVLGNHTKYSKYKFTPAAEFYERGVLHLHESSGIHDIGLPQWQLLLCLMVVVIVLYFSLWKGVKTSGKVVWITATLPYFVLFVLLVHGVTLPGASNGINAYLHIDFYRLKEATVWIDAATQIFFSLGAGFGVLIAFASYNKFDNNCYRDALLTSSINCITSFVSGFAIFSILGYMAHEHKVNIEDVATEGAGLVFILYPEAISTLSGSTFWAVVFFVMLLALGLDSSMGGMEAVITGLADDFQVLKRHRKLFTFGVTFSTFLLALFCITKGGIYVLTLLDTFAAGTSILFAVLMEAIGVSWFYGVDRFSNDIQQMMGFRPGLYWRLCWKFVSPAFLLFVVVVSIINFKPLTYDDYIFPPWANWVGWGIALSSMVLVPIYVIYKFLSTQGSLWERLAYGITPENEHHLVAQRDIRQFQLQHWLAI

[4] = MRT in ICR mouse at 10 mg/kg, po measured up to 24 hrs by HPLC-MS/MS analysis; assay type: ADME, organism-based; conditions: in vivo
[5] = Drug concentration in ICR mouse plasma at 10 mg/kg, po measured at 0.5 hrs by LC-MS/MS analysis; assay type: ADME, organism-based
[6] = Tmax in ICR mouse at 10 mg/kg, po measured up to 24 hrs by HPLC-MS/MS analysis; assay type: ADME, organism-based; conditions: in vivo
[7] = AUC (0 to t) in ICR mouse at 3 mg/kg, iv measured up to 24 hrs by HPLC-MS/MS analysis; assay type: ADME, organism-based; set-up: route intravenous, dose 3 mg/kg, time <=24; conditions: in vivo
hERG (KCNH2) [8] = molecular target: T1, hERG (KCNH2) (Homo sapiens, UniProt Q12809); assay: Inhibition of human ERG expressed in CHO cells at 30 uM with holding potential at -80 to -60 mV for 500s followed by raise in potential at +30 mV for 2 sec and subsequent repolarization to -60 mV for 2 sec by whole-cell patch clamp method relative to control; assay type: cell-based; conditions: CHO cells expressing human ERG
T1 sequence (Q12809 whole entry): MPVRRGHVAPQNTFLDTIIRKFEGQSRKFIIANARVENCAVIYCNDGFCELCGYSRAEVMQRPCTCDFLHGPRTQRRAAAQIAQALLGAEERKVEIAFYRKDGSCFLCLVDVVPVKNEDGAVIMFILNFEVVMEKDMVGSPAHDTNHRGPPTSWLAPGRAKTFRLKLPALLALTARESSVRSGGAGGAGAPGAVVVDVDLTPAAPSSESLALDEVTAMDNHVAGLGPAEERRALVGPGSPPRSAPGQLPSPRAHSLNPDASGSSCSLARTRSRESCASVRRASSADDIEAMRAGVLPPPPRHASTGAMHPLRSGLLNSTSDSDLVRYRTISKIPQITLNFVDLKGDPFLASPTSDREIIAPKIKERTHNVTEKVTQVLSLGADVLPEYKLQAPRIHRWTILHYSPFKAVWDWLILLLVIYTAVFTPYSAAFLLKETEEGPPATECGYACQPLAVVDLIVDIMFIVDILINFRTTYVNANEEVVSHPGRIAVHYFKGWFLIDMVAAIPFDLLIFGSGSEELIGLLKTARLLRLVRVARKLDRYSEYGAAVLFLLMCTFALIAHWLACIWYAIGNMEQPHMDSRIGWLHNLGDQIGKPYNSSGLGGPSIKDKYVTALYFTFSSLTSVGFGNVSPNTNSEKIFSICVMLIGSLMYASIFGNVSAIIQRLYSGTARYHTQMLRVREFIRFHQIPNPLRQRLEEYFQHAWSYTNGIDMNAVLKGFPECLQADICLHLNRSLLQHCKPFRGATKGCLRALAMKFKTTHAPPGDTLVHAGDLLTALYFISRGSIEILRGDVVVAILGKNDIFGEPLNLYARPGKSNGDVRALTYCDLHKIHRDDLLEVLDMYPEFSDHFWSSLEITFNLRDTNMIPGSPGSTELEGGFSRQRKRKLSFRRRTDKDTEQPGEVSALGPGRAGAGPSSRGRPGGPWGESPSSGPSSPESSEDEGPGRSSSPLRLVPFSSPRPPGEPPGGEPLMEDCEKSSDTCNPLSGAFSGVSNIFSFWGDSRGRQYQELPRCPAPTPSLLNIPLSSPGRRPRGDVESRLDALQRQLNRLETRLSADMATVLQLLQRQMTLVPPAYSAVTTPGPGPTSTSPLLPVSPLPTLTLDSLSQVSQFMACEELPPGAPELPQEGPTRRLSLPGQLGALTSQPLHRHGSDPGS

[9] = Oral bioavailability in ICR mouse at 10 mg/kg measured up to 24 hrs by HPLC-MS/MS analysis; assay type: ADME, organism-based; conditions: in vivo
[10] = Drug concentration in ICR mouse brain at 10 mg/kg, po measured at 2 hrs by LC-MS/MS analysis; assay type: ADME, organism-based; conditions: read-out: Ct
hERG (KCNH2) [11] = molecular target: T1, hERG (KCNH2); assay: Inhibition of human ERG expressed in CHO cells at 100 uM with holding potential at -80 to -60 mV for 500s followed by raise in potential at +30 mV for 2 sec and subsequent repolarization to -60 mV for 2 sec by whole-cell patch clamp method relative to control; assay type: cell-based; conditions: CHO cells expressing human ERG
[12] = Half life in ICR mouse at 3 mg/kg, iv measured up to 24 hrs by HPLC-MS/MS analysis; assay type: ADME, organism-based; conditions: in vivo
[13] = Cytotoxicity against human HEK293 cells assessed as cell growth inhibition at 60 uM measured after 48 hrs by CCK8 assay relative to control; assay type: cell-based
[14] = Half life in ICR mouse at 10 mg/kg, po measured up to 24 hrs by HPLC-MS/MS analysis; assay type: ADME, organism-based; conditions: in vivo
[15] = Drug concentration in ICR mouse plasma at 10 mg/kg, po measured at 2 hrs by LC-MS/MS analysis; assay type: ADME, organism-based
[16] = Drug concentration in ICR mouse brain at 3 mg/kg, iv measured at 2 hrs; assay type: ADME, organism-based; conditions: read-out: Ct
[17] = Cytotoxicity against human HEK293 cells assessed as cell growth inhibition at 120 uM measured after 48 hrs by CCK8 assay relative to control; assay type: cell-based
[18] = Cmax in ICR mouse at 10 mg/kg, po measured up to 24 hrs by HPLC-MS/MS analysis; assay type: ADME, organism-based; set-up: route oral, dose 10 mg/kg, time <=24; conditions: in vivo
[19] = molecular target: 5-hydroxytryptamine receptor 6 (Homo sapiens) (UniProt P50406); assay: Displacement of [3H]-LSD from human 5HT6 incubated for 30 mins by liquid scintillation counting analysis
5-hydroxytryptamine receptor 6 (Homo sapiens), sequence (P50406 whole entry): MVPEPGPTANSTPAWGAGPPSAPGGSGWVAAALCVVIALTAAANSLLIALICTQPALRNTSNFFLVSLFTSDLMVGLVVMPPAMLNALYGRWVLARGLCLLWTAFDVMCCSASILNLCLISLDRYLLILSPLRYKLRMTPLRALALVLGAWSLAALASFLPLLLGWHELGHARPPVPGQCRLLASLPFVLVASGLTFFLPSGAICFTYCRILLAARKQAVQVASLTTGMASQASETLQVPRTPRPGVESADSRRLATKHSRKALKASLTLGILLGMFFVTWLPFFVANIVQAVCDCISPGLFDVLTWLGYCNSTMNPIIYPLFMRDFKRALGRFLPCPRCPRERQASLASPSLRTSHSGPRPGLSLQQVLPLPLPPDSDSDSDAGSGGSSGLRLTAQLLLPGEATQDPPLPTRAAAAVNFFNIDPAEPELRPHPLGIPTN

[20] = Cmax in Sprague-Dawley rat at 10 mg/kg, po measured up to 1280 mins by HPLC-MS/MS analysis; assay type: ADME, organism-based; set-up: route oral, dose 10 mg/kg, time <=1280; conditions: in vivo
[21] = Ratio of drug concentration in brain to plasma in ICR mouse at 10 mg/kg, po measured at 2 hrs by LC-MS/MS analysis; assay type: ADME, organism-based; conditions: read-out: BPR
[22] = Effect on locomotor activity in ICR mouse assessed as hypolocomotion at 10 mg/kg, ip measured after 90 mins; assay type: ADME, organism-based; conditions: in vivo, 1.5 h
[23] = molecular target: 5-hydroxytryptamine receptor 1A (Homo sapiens) (UniProt P08908); assay: Displacement of [3H]-8-OH-DPAT from human 5HT1AR expressed in CHO cells incubated for 30 mins by liquid scintillation counting analysis; assay type: cell-based
5-hydroxytryptamine receptor 1A (Homo sapiens), sequence (P08908 whole entry): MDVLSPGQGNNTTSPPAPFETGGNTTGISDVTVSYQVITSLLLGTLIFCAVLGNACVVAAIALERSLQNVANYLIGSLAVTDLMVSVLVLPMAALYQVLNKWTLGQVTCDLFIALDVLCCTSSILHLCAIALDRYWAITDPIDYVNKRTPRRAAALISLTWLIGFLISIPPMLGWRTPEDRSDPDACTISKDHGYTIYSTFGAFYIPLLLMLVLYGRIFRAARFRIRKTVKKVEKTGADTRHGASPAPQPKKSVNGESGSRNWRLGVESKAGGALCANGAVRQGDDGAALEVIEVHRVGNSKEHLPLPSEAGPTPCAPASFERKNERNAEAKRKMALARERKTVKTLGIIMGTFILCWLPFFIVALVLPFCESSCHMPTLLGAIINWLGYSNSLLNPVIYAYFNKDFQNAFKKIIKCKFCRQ

[24] = Cmax in Sprague-Dawley rat at 3 mg/kg, iv measured up to 1280 mins by HPLC-MS/MS analysis; assay type: ADME, organism-based; set-up: route intravenous, dose 3 mg/kg, time <=1280; conditions: in vivo
[25] = Ratio of drug concentration in brain to plasma in ICR mouse at 3 mg/kg, iv measured at 0.5 hrs by LC-MS/MS analysis; assay type: ADME, organism-based; conditions: read-out: BPR
[26] = Ratio of drug concentration in brain to plasma in Sprague-Dawley rat at 3 mg/kg, iv measured at 80 mins by LC-MS/MS analysis; assay type: ADME, organism-based; conditions: read-out: BPR
[27] = Oral bioavailability in Sprague-Dawley rat at 10 mg/kg measured up to 1280 mins by HPLC-MS/MS analysis; assay type: ADME, organism-based; conditions: in vivo
[28] = Drug concentration in ICR mouse plasma at 3 mg/kg, iv measured at 2 hrs; assay type: ADME, organism-based
[29] = molecular target: D(2) dopamine receptor (Homo sapiens) (UniProt P14416); assay: Displacement of [3H]-methylspiperone from human dopamine D2 receptor expressed in CHO cells incubated for 30 mins by liquid scintillation counting analysis; assay type: cell-based
D(2) dopamine receptor (Homo sapiens), sequence (P14416 whole entry): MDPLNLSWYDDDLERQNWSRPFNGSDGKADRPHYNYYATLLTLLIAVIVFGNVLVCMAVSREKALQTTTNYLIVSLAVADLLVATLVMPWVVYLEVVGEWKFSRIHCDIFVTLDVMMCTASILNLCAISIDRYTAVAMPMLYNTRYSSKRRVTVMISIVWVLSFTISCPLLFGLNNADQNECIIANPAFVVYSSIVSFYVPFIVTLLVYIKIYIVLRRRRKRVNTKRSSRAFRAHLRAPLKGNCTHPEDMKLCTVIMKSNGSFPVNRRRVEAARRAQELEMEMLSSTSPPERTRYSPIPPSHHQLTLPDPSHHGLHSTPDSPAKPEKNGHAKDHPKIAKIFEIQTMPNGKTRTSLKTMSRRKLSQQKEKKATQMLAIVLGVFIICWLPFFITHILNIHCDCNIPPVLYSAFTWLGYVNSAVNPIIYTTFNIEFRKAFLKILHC

[30] = molecular target: 5-hydroxytryptamine receptor 2A (Homo sapiens) (UniProt P28223); assay: Displacement of [3H]-ketanserin from human 5HT2AR expressed in CHO cells incubated for 30 mins by liquid scintillation counting analysis; assay type: cell-based
5-hydroxytryptamine receptor 2A (Homo sapiens), sequence (P28223 whole entry): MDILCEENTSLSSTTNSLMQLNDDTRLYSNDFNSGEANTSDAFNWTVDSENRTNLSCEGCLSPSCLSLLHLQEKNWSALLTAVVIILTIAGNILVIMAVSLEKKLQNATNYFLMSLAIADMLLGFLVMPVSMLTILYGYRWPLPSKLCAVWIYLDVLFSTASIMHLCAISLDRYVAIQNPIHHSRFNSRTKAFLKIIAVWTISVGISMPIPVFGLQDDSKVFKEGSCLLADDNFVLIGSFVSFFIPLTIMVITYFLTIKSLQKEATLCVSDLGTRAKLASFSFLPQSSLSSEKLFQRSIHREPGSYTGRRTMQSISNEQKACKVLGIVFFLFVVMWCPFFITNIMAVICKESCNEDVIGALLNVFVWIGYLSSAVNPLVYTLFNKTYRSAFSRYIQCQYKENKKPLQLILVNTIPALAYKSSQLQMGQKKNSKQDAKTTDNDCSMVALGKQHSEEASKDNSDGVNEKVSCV

[31] = Ratio of drug concentration in brain to plasma in Sprague-Dawley rat at 3 mg/kg, iv measured at 20 mins by LC-MS/MS analysis; assay type: ADME, organism-based; conditions: read-out: BPR

For `Cc1cc(C)n(Cc2ccc(C(=O)Nc3ccc(Cl)c(Cl)c3)s2)n1`, the inhibition at 48 h, 60 µM [1] was 21.9%, the inhibition [2] was “inactive” and the inhibition [3] was “inactive”. It also gave an MRT [4] of 4.2 h, a concentration at 0.5 h [5] of 760 ng/mL and a Tmax [6] of 0.5 h. It also gave an AUC(0-t) at 24 h [7] of 1450 ng·h/mL, an inhibition at 2 s, 30 µM (hERG (KCNH2) [8]) of 35.4% and a bioavailability [9] of 63.3%. The concentration at 2 h [10] was 174 ng/mL, the inhibition at 2 s, 100 µM (hERG (KCNH2) [11]) was 45% and the half-life [12] was 2.8 h. For the same compound, the inhibition at 48 h, 60 µM [13] was -5.2%, the half-life [14] was 2.9 h and the concentration at 2 h [15] was 451 ng/mL. It also gave a concentration at 2 h [16] of 85.5 ng/mL, an inhibition at 48 h, 120 µM [17] of -14% and a Cmax [18] of 760 ng/mL. For the same compound, the inhibition [19] was “inactive”, the Cmax [20] was 190 ng/mL and the Kp at 2 h [21] was 0.38. For the same compound, the Activity [22] was “Non-Toxic”, the inhibition [23] was “inactive” and the Cmax [24] was 2350 ng/mL. It also gave a Kp at 0.5 h [25] of 0.41, a Kp at 1.333 h [26] of 1.5 and a bioavailability [27] of 8.32%. The concentration at 2 h [28] was 2940 ng/mL, the inhibition [29] was “inactive” and the inhibition [30] was “inactive”. It also gave a Kp at 20 min [31] of 1.5.
